Experimental data reported in the NIST ThermoML archive (doi:10.1021/acs.jced.6b00021).
Several values for one entry are separate records, joined by “and”; a condition that tells them apart may be missing. Equal entries are not always repeated.

Conditions: Liquid; for viscosity / electrical conductivity / self diffusion coefficient: 101.33 kPa; for viscosity: Falling or rolling sphere viscometry; for mass density: 100 kPa, Vibrating tube method; for electrical conductivity: Alternating current cell with electrodes; for self diffusion coefficient: NMR spin-echo technique

CCn1cc[n+](C)c1.O=S(=O)([O-])C(F)(F)F [1-ethyl-3-methylimidazolium trifluoromethanesulfonate]
Conditions	electrical conductivity	mass density	viscosity
268.15 K	–	–	172.2 mPa·s and 172.4 mPa·s
273.15 K	0.346 S/m	1407.23 kg/m3	130.7 mPa·s and 130.6 mPa·s
278.15 K	0.433 S/m	1402.99 kg/m3	102.3 mPa·s and 102 mPa·s
283.15 K	0.534 S/m	1398.75 kg/m3	80.26 mPa·s and 80.24 mPa·s
288.15 K	0.647 S/m	–	–
293.15 K	0.772 S/m	1390.28 kg/m3 and 1390.27 kg/m3	52.45 mPa·s
298.15 K	0.915 S/m and 0.91 S/m	1386.04 kg/m3 and 1386.06 kg/m3	43.54 mPa·s [middle of 4 runs]
300.65 K	–	–	39.67 mPa·s and 39.64 mPa·s
303.15 K	1.06 S/m	1381.85 kg/m3	36.27 mPa·s
305.65 K	–	–	33.3 mPa·s and 33.29 mPa·s
308.15 K	–	–	30.75 mPa·s and 30.7 mPa·s
313.15 K	1.42 S/m	1373.47 kg/m3 and 1373.45 kg/m3	26.21 mPa·s and 26.2 mPa·s
323.15 K	1.82 S/m	1365.14 kg/m3	19.57 mPa·s and 19.48 mPa·s
333.15 K	2.25 S/m	1356.86 kg/m3	15.02 mPa·s
343.15 K	2.76 S/m	1348.64 kg/m3	11.78 mPa·s and 11.73 mPa·s
348.15 K	–	–	10.51 mPa·s
353.15 K	3.29 S/m	1340.46 kg/m3	–
363.15 K	–	1332.32 kg/m3	–

CC1COC(=O)O1 (stereo not drawn) [4-methyl-1,3-dioxolan-2-one]
Conditions	mass density [kg/m3]	self diffusion coefficient
251.94 K	–	1.29e-10 m2/s
251.99 K	–	1.25e-10 m2/s and 1.24e-10 m2/s
262.92 K	–	1.95e-10 m2/s and 1.9e-10 m2/s
262.93 K	–	1.96e-10 m2/s and 1.93e-10 m2/s
273.09 K	–	2.76e-10 m2/s and 2.73e-10 m2/s
273.15 K	1226.25	2.73e-10 m2/s and 2.65e-10 m2/s
278.15 K	1220.9	–
278.27 K	–	3.12e-10 m2/s
278.28 K	–	3.19e-10 m2/s
278.51 K	–	3.19e-10 m2/s
283.15 K	1215.55	–
283.25 K	–	3.7e-10 m2/s and 3.63e-10 m2/s
283.27 K	–	3.7e-10 m2/s and 3.68e-10 m2/s
288.26 K	–	4.06e-10 m2/s and 4.1e-10 m2/s and 4.07e-10 m2/s
293.15 K	1204.89	–
293.21 K	–	4.58e-10 m2/s
293.27 K	–	4.62e-10 m2/s and 4.6e-10 m2/s
298.05 K	–	5.14e-10 m2/s
298.14 K	–	5.02e-10 m2/s and 5.01e-10 m2/s
298.15 K	1199.58	–
298.19 K	–	5.24e-10 m2/s and 5.21e-10 m2/s
298.21 K	–	5.23e-10 m2/s
298.26 K	–	5.24e-10 m2/s
303.15 K	1194.27	–
303.18 K	–	5.99e-10 m2/s and 5.89e-10 m2/s
303.19 K	–	5.98e-10 m2/s and 5.86e-10 m2/s
308.21 K	–	6.71e-10 m2/s and 6.58e-10 m2/s
308.27 K	–	6.74e-10 m2/s and 6.54e-10 m2/s
308.78 K	–	6.55e-10 m2/s
308.86 K	–	6.59e-10 m2/s
313.15 K	1183.67	–
313.39 K	–	7.44e-10 m2/s and 7.43e-10 m2/s
313.41 K	–	7.32e-10 m2/s and 7.46e-10 m2/s
318.26 K	–	8.17e-10 m2/s and 8.06e-10 m2/s
318.4 K	–	8.14e-10 m2/s and 8.18e-10 m2/s
323.15 K	1173.08	–
323.2 K	–	8.97e-10 m2/s and 9.06e-10 m2/s
323.25 K	–	9.05e-10 m2/s and 8.92e-10 m2/s
323.65 K	–	8.96e-10 m2/s and 8.76e-10 m2/s
323.67 K	–	8.78e-10 m2/s and 8.71e-10 m2/s
333.08 K	–	1.05e-09 m2/s
333.13 K	–	1.04e-09 m2/s
333.15 K	1162.5	–
342.8 K	–	1.22e-09 m2/s
342.86 K	–	1.18e-09 m2/s
343.15 K	1151.92	–
352.52 K	–	1.4e-09 m2/s
352.61 K	–	1.42e-09 m2/s
352.68 K	–	1.35e-09 m2/s
353.15 K	1141.33	–
363.15 K	1130.73	–

C[N+](C)(C)CCO.O=S(=O)([N-]S(=O)(=O)C(F)(F)F)C(F)(F)F [choline bis(trifluoromethylsulfonyl)imide]
Conditions	mass density [kg/m3]
313.15 K	1513.41
315.65 K	1511.12
318.15 K	1508.82
323.15 K	1504.27
328.15 K	1499.7
333.15 K	1495.16
338.15 K	1490.66
343.15 K	1486.16
348.15 K	1481.69
353.15 K	1477.22
358.15 K	1472.78
363.15 K	1468.35
